{"source": "paper PMC4641600", "about": "“Novel Activities of Select NSAID R-Enantiomers against Rac1 and Cdc42 GTPases” (PLoS ONE, 2015)", "key": {"[1]": {"test_system": "migration Rac1/Cdc42 dependent", "design": "method as in ref 28 (a number printed in a supplementary file, which may have a reference list of its own: not looked up in the article's list)", "settings": "read-out: IC50 migration Rac1/Cdc42 dependent (est); cited from earlier work"}, "[2]": {"test_system": "Cdc42", "settings": "cited from earlier work"}, "[3]": {"molecular_target": "T1, human COX-1 (Homo sapiens, UniProt P23219)", "T1 construct": "purchased CEREP Laboratories (contract assay); host or cells: Sf-9", "T1 sequence (P23219 24-599)": "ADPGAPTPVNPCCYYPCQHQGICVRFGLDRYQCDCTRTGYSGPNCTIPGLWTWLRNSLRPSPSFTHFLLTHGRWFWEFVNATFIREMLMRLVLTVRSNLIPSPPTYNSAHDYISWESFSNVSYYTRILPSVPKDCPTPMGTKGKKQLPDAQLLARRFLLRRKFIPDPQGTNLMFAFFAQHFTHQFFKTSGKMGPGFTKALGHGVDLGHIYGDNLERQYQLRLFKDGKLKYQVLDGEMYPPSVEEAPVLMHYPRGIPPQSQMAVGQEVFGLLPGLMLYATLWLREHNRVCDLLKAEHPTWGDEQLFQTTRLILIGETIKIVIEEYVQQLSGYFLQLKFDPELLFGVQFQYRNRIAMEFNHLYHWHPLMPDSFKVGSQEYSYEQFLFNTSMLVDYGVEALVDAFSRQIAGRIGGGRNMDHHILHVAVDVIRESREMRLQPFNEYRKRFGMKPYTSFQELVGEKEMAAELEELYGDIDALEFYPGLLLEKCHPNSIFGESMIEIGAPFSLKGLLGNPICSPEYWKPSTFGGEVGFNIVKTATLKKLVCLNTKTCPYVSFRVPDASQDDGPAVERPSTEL", "assay": "Cyclooxygenase assay (CEREP), PGE2 formation", "assay_type": "biochemical", "settings": "recombinant enzyme, 4 μM arachidonic acid"}, "[4]": {"molecular_target": "Rac1 wt (Homo sapiens, UniProt P63000)", "assay": "Dose response, BODIPY-GTP binding", "settings": "10 nM to 100 µM"}, "[5]": {"molecular_target": "Cdc42Q61L activating mutant (Homo sapiens, UniProt P60953, Q61L)", "sequence (P60953 whole entry Q61L)": "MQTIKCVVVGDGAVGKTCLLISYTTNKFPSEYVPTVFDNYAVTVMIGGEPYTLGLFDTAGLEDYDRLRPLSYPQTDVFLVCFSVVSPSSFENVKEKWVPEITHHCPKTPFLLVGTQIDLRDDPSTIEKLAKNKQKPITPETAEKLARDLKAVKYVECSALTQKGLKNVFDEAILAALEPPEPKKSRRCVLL", "assay": "Dose response, BODIPY-GTP binding", "settings": "10 nM to 100 µM; read-out: Cdc42 (act) EC50"}, "[6]": {"molecular_target": "Rac1Q61L activating mutant (Homo sapiens, UniProt P63000, Q61L)", "assay": "Dose response, BODIPY-GTP binding", "settings": "10 nM to 100 µM"}, "[7]": {"molecular_target": "T2, human COX-2 (Homo sapiens, UniProt P35354)", "T2 construct": "purchased CEREP Laboratories (contract assay); host or cells: Sf-9", "T2 sequence (P35354 18-604)": "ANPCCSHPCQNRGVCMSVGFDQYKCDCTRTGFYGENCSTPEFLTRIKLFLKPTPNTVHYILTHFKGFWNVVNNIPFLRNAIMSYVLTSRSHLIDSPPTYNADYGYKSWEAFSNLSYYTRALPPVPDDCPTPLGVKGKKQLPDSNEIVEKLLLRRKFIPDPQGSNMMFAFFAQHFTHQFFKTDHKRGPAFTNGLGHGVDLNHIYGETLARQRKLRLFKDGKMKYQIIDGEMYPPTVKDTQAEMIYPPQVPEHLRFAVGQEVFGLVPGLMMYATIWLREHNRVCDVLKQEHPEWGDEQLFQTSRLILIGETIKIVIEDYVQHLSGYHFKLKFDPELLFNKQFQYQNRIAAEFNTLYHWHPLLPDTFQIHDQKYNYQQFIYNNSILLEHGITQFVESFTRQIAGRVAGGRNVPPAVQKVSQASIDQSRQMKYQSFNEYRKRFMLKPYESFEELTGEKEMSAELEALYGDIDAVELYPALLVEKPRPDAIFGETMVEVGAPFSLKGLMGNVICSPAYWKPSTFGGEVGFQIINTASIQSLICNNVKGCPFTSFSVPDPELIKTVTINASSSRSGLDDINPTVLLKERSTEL", "assay": "Cyclooxygenase assay (CEREP), PGE2 formation", "assay_type": "biochemical", "settings": "recombinant enzyme, 4 μM arachidonic acid"}, "[8]": {"molecular_target": "H-RasG12V (Homo sapiens, UniProt P01112, G12V)", "assay": "Dose response, BODIPY-GTP binding", "settings": "10 nM to 100 µM", "protocol": "(§1) For multiplex analyses of small GTPases, 4 μm diameter glutathione-beads (GSH-beads) distinguished by seven different intensities of red fluorescence were used according to our previously described protocols. The GST-GTPases included the following eight Ras-related small GTPases: Rab2 wt, Rab7 wt, Cdc42 wt, Cdc42Q61L activating mutant, H-Ras wt, H-RasG12V, Rac1 wt and Rac1Q61L activating mutant. Briefly, Prestwick Chemical Library® compounds were tested at 10 μM compound and 1% DMSO final concentrations. After a 10 min pre-incubation with the compound BODIPY- FL-GTP (100 nM final) was added to each well and bead associated fluorescence was measured. Sample analysis was conducted with a HyperCyt® high throughput flow cytometry platform. Flow cytometric light scatter at 488 nm and fluorescence emission at 530 +/− 20 nm (FL1) and 665 +/− 10 nm (FL8) were collected on a Cyan ADP flow cytometer (Beckman Coulter, Fullerton, CA). IDLQuery software was used to determine the compound activity in each well. Gating based on forward scatter (FS) and side scatter (SS) parameters was used to identify singlet bead populations. Gating based on FL8 emission distinguishes the beads coated with different proteins, and the median FL1 fluorescence per bead population were calculated. A compound was considered a “potential active” if the change in BODIPY-FL-GTP binding differed greater than 20% from that measured in DMSO treated controls.\n(§2) Test compounds identified for follow-up after the primary screen were tested at dilutions ranging from 10 nM to 100 μM final concentration against individual GTPases in multiplex and single-plex assays. Compounds tested in dose response assays were serially diluted 1:3 a total of eight times from a starting concentration of 10 mM giving a 9-point dilution series in DMSO.\n(§3) bConfirmatory screens entailed dose response assays conducted in a multiplex format with eight GTPases tested as for primary screen. BODIPY-GTP-binding activity was\n(§4) measured in the presence of 10 nM to 100 µM of each of 11 test compounds (4 primary screen hits and 7 additional NSAIDs considered to have chemical similarity to GTPase\n(§5) active compounds). GST-GFP coated beads served as a control to detect non-specific dissociation or denaturation caused by compound addition–none of the tested NSAIDs had\n(§6) any effect on bead-GST-protein binding. EC50 values were determined using Prism to determine dose response fits as shown in Figure 1 of main text; fits have R2 > 0.9. Active\n(§7) compounds based on same definition used as in primary screena. […]\n(§8) ‡A well-characterized selective Cdc42 inhibitor served as a positive control."}, "[9]": {"molecular_target": "Cdc42 wt (Homo sapiens, UniProt P60953)", "sequence (P60953 whole entry)": "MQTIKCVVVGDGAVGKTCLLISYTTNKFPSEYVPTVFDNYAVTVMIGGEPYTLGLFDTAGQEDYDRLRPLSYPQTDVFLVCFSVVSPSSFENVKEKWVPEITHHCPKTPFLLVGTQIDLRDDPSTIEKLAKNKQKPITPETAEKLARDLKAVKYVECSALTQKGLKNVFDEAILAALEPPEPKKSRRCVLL", "assay": "Dose response, BODIPY-GTP binding", "settings": "10 nM to 100 µM"}, "[10]": {"molecular_target": "H-Ras wt (Homo sapiens, UniProt P01112)", "assay": "Dose response, BODIPY-GTP binding", "settings": "10 nM to 100 µM", "protocol": "as §1, §2, §3, §4, §5, §6, §7"}, "[11]": {"molecular_target": "Rab7 (Homo sapiens, UniProt P51149)", "sequence (P51149 whole entry, species assumed)": "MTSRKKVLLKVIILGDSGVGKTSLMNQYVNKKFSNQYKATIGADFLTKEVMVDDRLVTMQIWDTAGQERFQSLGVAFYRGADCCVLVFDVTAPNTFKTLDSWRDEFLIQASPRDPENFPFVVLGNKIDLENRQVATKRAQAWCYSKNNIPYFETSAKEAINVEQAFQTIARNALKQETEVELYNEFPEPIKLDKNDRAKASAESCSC", "assay": "Dose response, BODIPY-GTP binding", "settings": "10 nM to 100 µM"}, "[12]": {"molecular_target": "Rab2 (Homo sapiens, UniProt P61019)", "sequence (P61019 whole entry, species assumed)": "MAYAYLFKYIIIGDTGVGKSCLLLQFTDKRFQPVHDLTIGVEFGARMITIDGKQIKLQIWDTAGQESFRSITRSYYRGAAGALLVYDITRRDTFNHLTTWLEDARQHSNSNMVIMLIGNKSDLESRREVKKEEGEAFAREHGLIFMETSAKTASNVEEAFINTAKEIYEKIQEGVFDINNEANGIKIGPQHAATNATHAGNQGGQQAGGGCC", "assay": "Dose response, BODIPY-GTP binding", "settings": "10 nM to 100 µM"}, "[13]": {"test_system": "Ras-related GTPases", "assay": "Confirmatory dose response assays on eight Ras-related GTPases", "assay_type": "binding", "protocol": "as §1, §2, §3, §4, §5, §6, §7, §8"}, "[14]": {"test_system": "Rac1 membrane localization", "assay": "Rac1 immunolocalization, OvCa433 cells", "assay_type": "cell-based, human"}, "[15]": {"test_system": "OvCa433 cells", "settings": "0-300 µM, 48 h"}, "[16]": {"test_system": "Rab2 wt, Rab7 wt, Cdc42 wt, Cdc42Q61L, H-Ras wt, H-RasG12V, Rac1 wt and Rac1Q61L", "assay": "Primary multiplex screen, BODIPY-FL-GTP binding on bead-bound GTPases (flow cytometry)"}, "[17]": {"test_system": "Tiam1 membrane localization", "assay": "Tiam1 immunolocalization, OvCa433 cells", "assay_type": "cell-based, human", "protocol": "OvCa433 were plated on coverslips, treated with 300 μM NSAIDs for 1 h, fixed with 3% paraformaldehyde and immunostained for Rac1 or Tiam1. Actin was visualized with rhodamine phalloidin from Invitrogen (F432). Cells were imaged on a Zeiss LSM510 using a 63x objective and quantified using Image J.\nRac1 and Tiam1 antibodies were confirmed in our hands to recognize single protein species of the predicted molecular weight by immunoblot."}, "[18]": {"test_system": "COX-1", "settings": "IC50 values not calculated; thromboxane B2, collagen-stimulated human platelets; cited from earlier work"}, "[19]": {"molecular_target": "T3, Rac1 (Mus musculus, UniProt P63001)", "T3 construct": "endogenous in cells; host or cells: Swiss 3T3", "assay": "GLISA, Swiss 3T3 cells", "assay_type": "cell-based", "settings": "for EGF-mediated Rac1 activation: 300 μM"}, "[20]": {"test_system": "OvCa429 cells", "settings": "300 μM, relative to 6-MNA"}, "[21]": {"test_system": "Rac1 and Tiam1 protein levels", "assay": "Immunoblot of protein levels", "assay_type": "cell-based, human", "protocol": "Cells were stimulated with EGF at a final concentration of 1 nM for 10 min. Cells were lysed in a RIPA buffer consisting of 50 mM Tris pH 7.4, 1% NP-40, 0.25% sodium deoxycholate, 150 mM NaCl, 1 mM EDTA, 1 mM PMSF, 1 mM sodium vanadate, 10 mM sodium fluoride, 1 μg/mL each of pepstatin, aprotinin and leupeptin, 10 mM sodium pyrophosphate and 10 mM beta-glycerophosphate.\nN = 3. See also Figure D in S1 File for time dependent loss of Rac1 membrane localization. N = 3 (B) Quantification of image intensity using Image J of 3 representative confocal images as shown in panel (A) containing 20–30 cells/field normalized to actin and untreated controls. (C) Western blot analyses of lysates from cells treated with 300 μM compound as indicated for 24 h as compared to untreated controls. […] Blots were probed for Tiam1 (200 kDa), GAPDH (37 kDa), Rac1 (20 kDa), as a loading control. (D) Quantification of image intensity using Image J. Each marker was normalized to GAPDH and untreated controls. N = 3."}, "[22]": {"settings": "immunofluorescence quantified using ImageJ"}}, "data": [{"smiles": "COc1ccc(C2CC(c3ccccc3)=NN2c2ccc(S(N)(=O)=O)cc2)cc1", "note": "(centres unmarked) [CID2950007/ML141]", "values": [{"measurement": "IC50", "setting": "[1]", "value": "~10000", "unit": "nM"}, {"measurement": "IC50", "setting": "[2]", "value": "2100 to 2600", "unit": "nM"}, {"measurement": "IC50", "setting": "[3]", "value": 1800, "unit": "nM"}, {"measurement": "Rac1 wt EC50", "setting": "[4]", "value": "inactive"}, {"measurement": "EC50", "setting": "[5]", "value": 5400, "unit": "nM"}, {"measurement": "Rac1 (act) EC50", "setting": "[6]", "value": "inactive"}, {"measurement": "IC50", "setting": "[7]", "value": 580, "unit": "nM"}, {"measurement": "H-Ras (act) EC50", "setting": "[8]", "value": "inactive"}, {"measurement": "EC50", "setting": "[9]", "value": 2600, "unit": "nM"}, {"measurement": "H-Ras wt EC50", "setting": "[10]", "value": "inactive"}, {"measurement": "Rab7 EC50", "setting": "[11]", "value": "inactive"}, {"measurement": "Rab2 EC50", "setting": "[12]", "value": "inactive"}]}, {"smiles": "COc1ccc2cc([C@@H](C)C(=O)O)ccc2c1", "note": "[R-naproxen]", "values": [{"measurement": "activity against the GTPases in confirmatory dose response assays (words)", "setting": "[13]; 10 nM to 100 µM", "value": "varying activity levels"}, {"measurement": "EC50", "setting": "[13]; additional confirmatory dose response assays, different conditions", "value": "3000 to 18000", "unit": "nM"}, {"measurement": "Rac1 membrane localization", "setting": "[14]; 300 μM", "value": "substantially reduced"}, {"measurement": "Rac PM Localiz.", "setting": "[14]; [22]", "value": 34, "unit": "%"}, {"measurement": "cytotoxicity", "setting": "[15]", "value": "not cytotoxic"}, {"measurement": "primary screen outcome", "setting": "[16]; 10 μM compound", "value": "positive and hit"}, {"measurement": "Primary Screen Hit", "setting": "[16]; single dose 10 µM, change in BODIPY-GTP binding on any one GTPase", "value": "Active"}, {"measurement": "Tiam1 membrane localization", "setting": "[17]; 300 μM", "value": "substantially reduced"}, {"measurement": "Tiam1 GEF PM localiz.", "setting": "[17]; [22]", "value": 32, "unit": "%"}, {"measurement": "H-Ras (act) EC50", "setting": "[8]", "value": "inactive"}, {"measurement": "COX-1 Previously Published", "setting": "[18]", "value": "R>S"}, {"measurement": "EGF-mediated Rac1 activation", "setting": "[19]; 15 min pretreatment", "value": "significantly inhibited"}, {"measurement": "EGF-mediated Rac1 activation", "setting": "[19]; 1 h pretreatment", "value": "reduced activation to basal unstimulated levels"}, {"measurement": "inhibition at 300 µM", "setting": "[19]; Swiss-3T3, at 300 µM", "value": 100, "unit": "%"}, {"measurement": "invadopodia formation", "setting": "[20]", "value": "inhibited"}, {"measurement": "total Rac1 or Tiam1 protein levels", "setting": "[21]; 300 μM, 24 h, immunoblot", "value": "did not alter"}, {"measurement": "Rac protein expression", "setting": "[21]; immunoblot analysis", "value": "No change"}, {"measurement": "H-Ras wt EC50", "setting": "[10]", "value": "inactive"}, {"measurement": "Rab7 EC50", "setting": "[11]", "value": "inactive"}, {"measurement": "Rab2 EC50", "setting": "[12]", "value": "inactive"}]}]}
